Source: PubChem BioAssay AID1845196 (Molecular Pharmacology Branch, DTP, NCI, 2023)

Test system: 292921-168-R tumor spheroid viability
Assay: Anticancer human tumor 292921-168-R patient-derived pancreatic carcinoma cell line growth inhibition
Details: spheroids with HUVEC and MSC; for IC50: curve of first compound; for viability, T/C: stronger effect = lower value
In short: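 Complex tumor spheroids combined malignant cells with endothelial cells and mesenchymal stem cells. DNA-damaging drugs and DNA repair inhibitors were tested alone and in combination, at half-log dilutions down from clinical Cmax (top 10 microM if Cmax unknown), 0.25% DMSO final.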

[1] = second compound 1 µM, first compound 0.0316 µM
[2] = second compound 1 µM, first compound 0.1 µM
[3] = second compound 1 µM, first compound 0.316 µM
[4] = second compound 1 µM, first compound 1 µM
[5] = second compound 1 µM, first compound 3.16 µM
[6] = second compound 1 µM, first compound 10 µM
[7] = second compound 3.16 µM, first compound 0.0316 µM
[8] = second compound 3.16 µM, first compound 0.1 µM
[9] = second compound 3.16 µM, first compound 0.316 µM
[10] = second compound 3.16 µM, first compound 1 µM
[11] = second compound 3.16 µM, first compound 3.16 µM
[12] = second compound 3.16 µM, first compound 10 µM
[13] = second compound 10 µM, first compound 0.0316 µM
[14] = second compound 10 µM, first compound 0.1 µM
[15] = second compound 10 µM, first compound 0.316 µM
[16] = second compound 10 µM, first compound 1 µM
[17] = second compound 10 µM, first compound 3.16 µM
[18] = second compound 10 µM, first compound 10 µM
[19] = second compound 31.6 µM, first compound 0.0316 µM
[20] = second compound 31.6 µM, first compound 0.1 µM
[21] = second compound 31.6 µM, first compound 0.316 µM
[22] = second compound 31.6 µM, first compound 1 µM
[23] = second compound 31.6 µM, first compound 3.16 µM
[24] = second compound 31.6 µM, first compound 10 µM
[25] = second compound 100 µM, first compound 0.0316 µM
[26] = second compound 100 µM, first compound 0.1 µM
[27] = second compound 100 µM, first compound 0.316 µM
[28] = second compound 100 µM, first compound 1 µM
[29] = second compound 100 µM, first compound 3.16 µM
[30] = second compound 100 µM, first compound 10 µM
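Further: spheroids exposed to compounds for 7 days.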

| Structure (SMILES) | IC50 (second compound 1 µM) [µM] | IC50 (second compound 3.16 µM) [µM] | IC50 (second compound 10 µM) [µM] | IC50 (second compound 31.6 µM) [µM] | IC50 (second compound 100 µM) [µM] | viability, T/C [1] [%] | viability, T/C [2] [%] | viability, T/C [3] [%] | viability, T/C [4] [%] | viability, T/C [5] [%] | viability, T/C [6] [%] | viability, T/C [7] [%] | viability, T/C [8] [%] | viability, T/C [9] [%] | viability, T/C [10] [%] | viability, T/C [11] [%] | viability, T/C [12] [%] | viability, T/C [13] [%] | viability, T/C [14] [%] | viability, T/C [15] [%] | also measured |
| --- | --- | --- | --- | --- | --- | --- | --- | --- | --- | --- | --- | --- | --- | --- | --- | --- | --- | --- | --- | --- | --- |
| CC(C)n1c(=O)n(C)c2cnc3cc(F)c(-c4ccc(OCCCN5CCCCC5)nc4)cc3c21 + Cn1nnc2c(C(N)=O)ncn2c1=O | 4.66 | 5.43 | 5.38 | 4.64 | 4.29 | 96.5 | 94.2 | 89.6 | 79.6 | 63.3 | 26 | 99.2 | 94.8 | 85.6 | 86.8 | 73.8 | 25.1 | 90.4 | 96.2 | 89.5 | viability, T/C [16]: 84.2%; viability, T/C [17]: 69.8%; viability, T/C [18]: 27.4%; viability, T/C [19]: 89.9%; viability, T/C [20]: 91.2%; viability, T/C [21]: 83.6%; viability, T/C [22]: 77.9%; viability, T/C [23]: 62.8%; viability, T/C [24]: 25.9%; viability, T/C [25]: 72.2%; viability, T/C [26]: 74.1%; viability, T/C [27]: 79.6%; viability, T/C [28]: 77.2%; viability, T/C [29]: 57.9%; viability, T/C [30]: 28.1% |
| CC1COCCN1c1cc(-c2ccnn2C)c2ccnc(-c3ccn[nH]3)c2n1 (stereo not given) + Cn1nnc2c(C(N)=O)ncn2c1=O | < 0.0316 | < 0.0316 | < 0.0316 | < 0.0316 | < 0.0316 | 29 | 15.5 | 13 | 13.1 | 14.6 | 15.8 | 30.4 | 17.8 | 14.5 | 13 | 14.2 | 15.8 | 27.9 | 16.2 | 12.1 | viability, T/C [16]: 12.8%; viability, T/C [17]: 15.2%; viability, T/C [18]: 15.6%; viability, T/C [19]: 24.3%; viability, T/C [20]: 17.9%; viability, T/C [21]: 12.5%; viability, T/C [22]: 12.8%; viability, T/C [23]: 13.9%; viability, T/C [24]: 15.3%; viability, T/C [25]: 16.9%; viability, T/C [26]: 11.8%; viability, T/C [27]: 9.95%; viability, T/C [28]: 11.3%; viability, T/C [29]: 13%; viability, T/C [30]: 14.7% |
| COc1ccc([C@@H](O)c2cc(-c3ncnc4cc(N5CCOCC5)ccc34)c(F)cc2Cl)nn1 + Cn1nnc2c(C(N)=O)ncn2c1=O | 1.23 | 1.47 | 1.29 | 1.14 | 0.899 | 96.4 | 91.1 | 70.9 | 55.5 | 32.5 | 17.9 | 101 | 95.5 | 82.2 | 60.1 | 31.6 | 19 | 97.5 | 91.6 | 84.9 | viability, T/C [16]: 51%; viability, T/C [17]: 35.5%; viability, T/C [18]: 18.2%; viability, T/C [19]: 95.5%; viability, T/C [20]: 92.5%; viability, T/C [21]: 81.5%; viability, T/C [22]: 51.2%; viability, T/C [23]: 30.4%; viability, T/C [24]: 18.6%; viability, T/C [25]: 93%; viability, T/C [26]: 88.5%; viability, T/C [27]: 77.7%; viability, T/C [28]: 45%; viability, T/C [29]: 30.4%; viability, T/C [30]: 18.9% |
